Key:
Mcl-1 protein = Mcl-1 protein (Homo sapiens, UniProt Q07820); test: Inhibition of Mcl-1 by the fluorescence polarisation technique; type: binding; settings: fluorescence polarisation test; Fluorescein labelled ligand 1 nM, Mcl-1 protein 5 nM, ~2 hours at r.t.; read-out: IC50 (M) Mcl-1 FP
Procedure: The relative binding potency of each compound was determined via Fluorescence Polarisation (FP). The method utilised a Fluorescein labelled ligand (Fluorescein-βAla-Ahx-A-REIGAQLRRMADDLNAQY-OH; mw 2,765) which binds to the Mcl-1 protein (such that Mcl-1 corresponds to the UniProtKB® primary accession number: Q07820) leading to an increased anisotropy measured in milli-polarisation (mP) units using a reader. The addition of a compound which binds competitively to the same site as the ligand will result in a greater proportion of unbound ligand in the system indicated by a decrease in mP units.
An 11 point serial dilution of each compound was prepared in DMSO and 2 μl transferred into flat bottomed, low binding, 384-well plate (final DMSO concentration 5%). 38 μl of buffer (10 mM 4-(2-hydroxyethyl)-1-piperazineethanesulfonic acid [HEPES], 150 mM NaCl, 0.05% Tween 20, pH 7.4), containing the Fluorescein labelled ligand (final concentration 1 nM) and Mcl-1 protein (final concentration 5 nM) was then added.
Assay plates were incubated ˜2 hours at r.t. before FP was measured on a Biomek Synergy2 reader (Ex. 528 nm, Em. 640 nm, Cut off 510 nm) and mP units calculated. The binding of increasing doses of test compound was expressed as a percentage reduction in mP compared to a window established between ‘5% DMSO only’ and ‘100% inhibition’ controls. 11-point dose response curves were plotted with XL-Fit software using a 4-Parameter Logistic Model (Sigmoidal Dose-Response Model) and the inhibitory concentrations that gave a 50% reduction in mP (IC50) were determined.

H929 cells = test: In vitro cytotoxicity (MTT) on H929 multiple myeloma tumour line; type: cell-based; settings: Homo sapiens, NCI-H929, exposed 48 hours, Microculture Tetrazolium Assay
Procedure: The cytotoxicity studies were carried out on the H929 multiple myeloma tumour line.
The cells are distributed onto microplates and exposed to the test compounds for 48 hours.
The cell viability is then quantified by a colorimetric assay, the Microculture Tetrazolium Assay (Cancer Res., 1987, 47, 939-942).

Mcl-1 protein, sequence (Q07820 whole entry): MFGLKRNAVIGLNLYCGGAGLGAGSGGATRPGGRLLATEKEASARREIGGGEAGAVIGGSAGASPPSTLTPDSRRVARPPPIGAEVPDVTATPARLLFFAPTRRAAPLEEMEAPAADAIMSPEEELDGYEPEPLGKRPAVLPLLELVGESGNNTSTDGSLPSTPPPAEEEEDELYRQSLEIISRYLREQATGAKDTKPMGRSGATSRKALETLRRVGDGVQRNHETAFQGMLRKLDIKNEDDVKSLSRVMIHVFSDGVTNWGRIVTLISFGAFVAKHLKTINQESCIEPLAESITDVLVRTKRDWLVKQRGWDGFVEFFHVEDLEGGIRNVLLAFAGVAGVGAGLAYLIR

Molecule	IC50 (Mcl-1 protein) [M]	IC50 (H929 cells) [nM]
Cc1c(-c2c(-c3ccc(F)cc3)sc3ncnc(OC(Cc4ccccc4OCc4ccnc(-c5cccc(O)c5)n4)C(=O)O)c23)ccc(OCCN2CCN(C)CC2)c1Cl [Example 1, (2R)-2-{[(5Sa)-5-{3-chloro-2-methyl-4-[2-(4-methylpiperazin-1-yl)ethoxy]phenyl}-6-(4-fluorophenyl)thieno[2,3-d]pyrimidin-4-yl]oxy}-3-(2-{[2-(3-hydroxyphenyl)pyrimidin-4-yl]methoxy}phenyl)propanoic acid]	8.4e-09	9.31
COCCOCCOCCOc1cccc(-c2nccc(COc3ccccc3CC(Oc3ncnc4sc(-c5ccc(F)cc5)c(-c5ccc(OCCN6CCN(C)CC6)c(Cl)c5C)c34)C(=O)O)n2)c1 [Example 48, (2R)-2-{[(5Sa)-5-{3-chloro-2-methyl-4-[2-(4-methylpiperazin-1-yl)ethoxy]phenyl}-6-(4-fluorophenyl)thieno[2,3-d]pyrimidin-4-yl]oxy}-3-(2-{[2-(3-{2-[2-(2-methoxyethoxy)ethoxy]ethoxy}phenyl)pyrimidin-4-yl]methoxy}phenyl)propanoic acid]	3.85e-09	–
Cc1c(-c2c(-c3ccc(F)cc3)sc3ncnc(OC(Cc4ccccc4OCc4ccnc(-c5cccc(OCCN(CCO)CCO)c5)n4)C(=O)O)c23)ccc(OCCN2CCN(C)CC2)c1Cl [Example 49, (2R)-3-(2-{[2-(3-{2-[bis(2-hydroxyethyl)amino]ethoxy}phenyl)pyrimidin-4-yl]methoxy}phenyl)-2-{[(5Sa)-5-{3-chloro-2-methyl-4-[2-(4-methylpiperazin-1-yl)ethoxy]phenyl}-6-(4-fluorophenyl)thieno[2,3-d]pyrimidin-4-yl]oxy}propanoic acid]	4.65e-09	–
Cc1c(-c2c(-c3ccc(F)cc3)sc3ncnc(OC(Cc4ccccc4OCc4ccnc(-c5cccc(OCCN6CCOCC6)c5)n4)C(=O)O)c23)ccc(OCCN2CCN(C)CC2)c1Cl [Example 51, (2R)-2-{[(5Sa)-5-{3-chloro-2-methyl-4-[2-(4-methylpiperazin-1-yl)ethoxy]phenyl}-6-(4-fluorophenyl)thieno[2,3-d]pyrimidin-4-yl]oxy}-3-{2-[(2-{3-[2-(morpholin-4-yl)ethoxy]phenyl}pyrimidin-4-yl)methoxy]phenyl}propanoic acid]	4.15e-09	–
Cc1c(-c2c(-c3ccc(F)cc3)sc3ncnc(OC(Cc4ccccc4OCc4ccnc(-c5cccc(OCCN(C)C)c5)n4)C(=O)O)c23)ccc(OCCN2CCN(C)CC2)c1Cl [Example 52, (2R)-2-{[(5Sa)-5-{3-chloro-2-methyl-4-[2-(4-methylpiperazin-1-yl)ethoxy]phenyl}-6-(4-fluorophenyl)thieno[2,3-d]pyrimidin-4-yl]oxy}-3-{2-[(2-{3-[2-(dimethylamino)ethoxy]phenyl}pyrimidin-4-yl)methoxy]phenyl}propanoic acid]	3.7e-09	–
Cc1c(-c2c(-c3ccc(F)cc3)sc3ncnc(OC(Cc4ccccc4OCc4ccnc(-c5ccc(OCCN(CCO)CCO)cc5)n4)C(=O)O)c23)ccc(OCCN2CCN(C)CC2)c1Cl [Example 53, (2R)-3-(2-{[2-(4-{2-[bis(2-hydroxyethyl)amino]ethoxy}phenyl)pyrimidin-4-yl]methoxy}phenyl)-2-{[(5Sa)-5-{3-chloro-2-methyl-4-[2-(4-methylpiperazin-1-yl)ethoxy]phenyl}-6-(4-fluorophenyl)thieno[2,3-d]pyrimidin-4-yl]oxy}propanoic acid]	4.65e-09	–
Cc1c(-c2c(-c3ccc(F)cc3)sc3ncnc(OC(Cc4ccccc4OCc4ccnc(-c5ccc(OCCOCCOCCO)cc5)n4)C(=O)O)c23)ccc(OCCN2CCN(C)CC2)c1Cl [Example 54, (2R)-2-{[(5Sa)-5-{3-chloro-2-methyl-4-[2-(4-methylpiperazin-1-yl)ethoxy]phenyl}-6-(4-fluorophenyl)thieno[2,3-d]pyrimidin-4-yl]oxy}-3-(2-{[2-(4-{2-[2-(2-hydroxyethoxy)ethoxy]ethoxy}phenyl)pyrimidin-4-yl]methoxy}phenyl)propanoic acid]	4.6e-09	–
Cc1c(-c2c(-c3ccc(F)cc3)sc3ncnc(OC(Cc4ccccc4OCc4ccnc(-c5ccc(OCC6COC(C)(C)O6)cc5)n4)C(=O)O)c23)ccc(OCCN2CCN(C)CC2)c1Cl [Example 55, (2R)-2-{[(5Sa)-5-{3-chloro-2-methyl-4-[2-(4-methylpiperazin-1-yl)ethoxy]phenyl}-6-(4-fluorophenyl)thieno[2,3-d]pyrimidin-4-yl]oxy}-3-{2-[(2-{4-[(2,2-dimethyl-1,3-dioxolan-4-yl)methoxy]phenyl}pyrimidin-4-yl)methoxy]phenyl}propanoic acid]	6.35e-09	–
Cc1c(-c2c(-c3ccc(F)cc3)sc3ncnc(OC(Cc4ccccc4OCc4ccnc(-c5ccc(OCCN6CCOCC6)cc5)n4)C(=O)O)c23)ccc(OCCN2CCN(C)CC2)c1Cl [Example 56, (2R)-2-{[(5Sa)-5-{3-chloro-2-methyl-4-[2-(4-methylpiperazin-1-yl)ethoxy]phenyl}-6-(4-fluorophenyl)thieno[2,3-d]pyrimidin-4-yl]oxy}-3-{2-[(2-{4-[2-(morpholin-4-yl)ethoxy]phenyl}pyrimidin-4-yl)methoxy]phenyl}propanoic acid]	4.75e-09	–
CCOC(=O)OC(C)OC(=O)C(Cc1ccccc1OCc1ccnc(-c2cccc(OC(COC)COC)c2)n1)Oc1ncnc2sc(-c3ccc(F)cc3)c(-c3ccc(OCCN4CCN(C)CC4)c(Cl)c3C)c12 [Example 69, 1-[(ethoxycarbonyl)oxy]ethyl (2R)-2-{[(5Sa)-5-{3-chloro-2-methyl-4-[2-(4-methylpiperazin-1-yl)ethoxy]phenyl}-6-(4-fluorophenyl)thieno[2,3-d]pyrimidin-4-yl]oxy}-3-{2-[(2-{3-[(1,3-dimethoxypropan-2-yl)oxy]phenyl}pyrimidin-4-yl)methoxy]phenyl}propanoate]	7.6e-08	–
Cc1c(-c2c(-c3ccc(F)cc3)sc3ncnc(OC(Cc4ccccc4OCc4ccnc(-c5cncc(CO)c5)n4)C(=O)O)c23)ccc(OCCN2CCN(C)CC2)c1Cl [Example 79, (2R)-2-{[(5Sa)-5-{3-chloro-2-methyl-4-[2-(4-methylpiperazin-1-yl)ethoxy]phenyl}-6-(4-fluorophenyl)thieno[2,3-d]pyrimidin-4-yl]oxy}-3-[2-({2-[5-(hydroxymethyl)pyridin-3-yl]pyrimidin-4-yl}methoxy)phenyl]propanoic acid]	7.6e-09	–
Cc1c(-c2c(-c3ccc(F)cc3)sc3ncnc(OC(Cc4ccccc4OCc4ccnc(-c5cnc(CO)nc5)n4)C(=O)O)c23)ccc(OCCN2CCN(C)CC2)c1Cl [Example 82, (2R)-2-{[(5Sa)-5-{3-chloro-2-methyl-4-[2-(4-methylpiperazin-1-yl)ethoxy]phenyl}-6-(4-fluorophenyl)thieno[2,3-d]pyrimidin-4-yl]oxy}-3-(2-{[2′-(hydroxymethyl)-2,5′-bipyrimidin-4-yl]methoxy}phenyl)propanoic acid]	7.7e-09	–
(2R)-2-{[(5Sa)-5-{2,3-dimethyl-4-[2-(4-methylpiperazin-1-yl)ethoxy]phenyl}-6-(4-fluorophenyl)thieno[2,3-d]pyrimidin-4-yl]oxy}-3-{2-[(2-{3-[({[2-(piperidin-1-yl)ethyl]carbamoyl}oxy)methyl]phenyl}pyrimidin-4-yl)methoxy]phenyl}propanoic acid [Example 50]	6.6e-09	–

— patent US10322131B2, “Hydroxyacid derivatives, a process for their preparation and pharmaceutical compositions containing them” (LES LABORATOIRES SERVIER, priority 2015, dated 2019)
